Test results: US20100297225A1, “SUSTAINED-RELEASE PHARMACEUTICAL FORMULATION CONTAINING AN ANTIMUSCARINIC AGENT AND A WETTING AGENT AS WELL AS A PROCESS FOR THE PREPARATION THEREOF” (PHARMATHEN S.A., priority 2007, published 2010)
Counter-ions that a name gives are not always drawn.

Legend:
[1] = Flowability and compressibility (Carr's Index); format: physicochemical
Text: The pharmaceutical composition is characterized by excellent pharmacotechnical properties, such as homogeneity, flowability and compressibility.

[2] = X-RD analysis of crystalline form after storage; format: physicochemical; conditions: 3 months storage, normal and accelerated conditions (40°C and 75% RH)
Method: As shown in FIG. 1 by the X-RD analysis Tolterodine Tartrate is in crystalline form and all the recorded characteristic broad peaks (approximate 20 values=12.55, 16.40, 20.00, 21.20, 22.75, 23.80, 25.65, 27.45, 34.60 and 37.60) were unchanged after 3 months storage in both normal and accelerated conditions (40° C. and 75% RH). The crystal properties remain also unchanged after three months in the same conditions when the mixture is incorporated in a pharmaceutical composition with other excipients.

Cc1ccc(O)c([C@H](CCN(C(C)C)C(C)C)c2ccccc2)c1 [Tolterodine Tartrate, (R)—N,N-diisopropyl-3-(2-hydroxy-5-methylphenyl)-3-phenylpropylamine]
mean Carr's Index [1]: 38.7% | X-RD characteristic peaks of crystalline form after storage [2]: unchanged
